Experiments:
SH-SY5Y cells [1] = experiment: Cell viability in H2O2 oxidative stress model, MTT assay; assay type: cell-based, human; settings: 150 μM H2O2, 6 h; 0.001-1 μM
Method: First, the capacity of 1–5 to improve cell survival under oxidative stress conditions was determined with the MTT assay (Figure 2). […] When cells were injured with the oxidant specie, a decrease in the cell viability of 23.6 ± 3.5% (p < 0.05) was observed.
Figure 2 Effect of compounds on the cell viability of SH-SY5Y cells. Compounds were added to human neuroblastoma cells for 6 h with and without 150 μM H2O2, and cell viability was evaluated with the MTT assay. Results of (a) compound 1, (b) compound 2, (c) compound 3, (d) compound 4, and (e) compound 5. Vitamin E (Vit E) at 25 μM was used as a positive control in oxidative stress assays. Mean ± standard error of the mean (SEM) of three experiments performed in triplicate. Data expressed as the percentage of control cells, compared by one-way analysis of variance (ANOVA) and Dunnett’s tests. ^#p < 0.05 compared to untreated control cells. *p < 0.05 and **p < 0.01 compared to cells treated with H2O2 alone. […]
The ability of compounds to protect cell viability from H2O2 was evaluated with 3-(4,5-dimethylthiazol-2-yl)-2,5-diphenyltetrazolium bromide (MTT) test. […] The absorbance of formazan crystals was measured at 595 nm with a plate reader. Saponin at 40 mg/mL was used as the death control, and its absorbance value was subtracted from the other data.

human cancer cell lines = system: human cancer cell lines; set-up: method as in PMID 31315183; settings: previous studies; cited from earlier work
human CypD = human CypD (Homo sapiens, UniProt P30405); experiment: Surface plasmon resonance binding to immobilized CypD; settings: for selectivity between CypD and CypA (KD values): CypD versus CypA; for kon: read-out: ka, CypD
Method: With this objective, surface plasmon resonance (SPR) experiments were performed. CypD was immobilized in the sensor surface as a ligand, and 1–5 were injected as analytes. […] For immobilization, amine groups were activated with 1-ethyl-3-(3-dimethylaminopropyl)carbodiimide hydrochloride (EDC) and N-hydroxysuccinimide (NHS) and 50 μg/mL of human CypD dissolved in 5 mM sodium acetate (pH 4.5) was added. […] All of the assays were carried out with phosphate-buffered saline (PBS)—0.05% Tween (pH 7.2) as the running buffer, with a flow rate of 20 μL/min at 24 °C.
The left panels present association curves obtained by the addition of compounds over immobilized CypD and subtraction of their respective solvent control. The right panels show fitting curves for equilibrium binding. Representative graphs of one independent replicate. […] All injections were performed using PBS, 0.05% Tween (pH 7.2) as the running buffer. Kinetic equilibrium dissociation constants (KD) and fitting curves were obtained with TraceDrawer software.
(§2) SPR measurements were performed using the MP-SPR Navi 210A VASA instrument with SPR Navi Control software (BioNavis, Tampere, Finland). All of the analyses were carried out in three-dimensional (3D) carboxymethyl dextran hydrogel-coated (CMD-3DM) sensors (BioNavis). PBS, 0.05% Tween (pH 7.2) was used as the running buffer for sensor activation, protein immobilization, and analyte injection. All buffers were degassed and filtered by 0.22 μm before use. The flow rate and temperature were set at 20 μL/min and 24 °C, respectively. A commercial Amine Coupling Kit (Xantec bioanalytics GmbH, Düsseldorf, Germany) was used for sensor activation and Cyps immobilization. The chip surface was preconditioned with 2 M NaCl and 0.01 M NaOH. Then, the surface was activated by the addition of 0.2 M 1-ethyl-3-(3-dimethylaminopropyl)carbodiimide hydrochloride (EDC) and 0.05 M N-hydroxysuccinimide (NHS). After activation, 50 μg/mL of CypA or CypD dissolved in 5 mM sodium acetate buffer (pH 4.5) were injected for immobilization on the sensor surface. […] Compound injections were performed in serial mode, and the reference channel signal was subtracted from the analyte sensorgram. Data were processed with MP-SPR Navi Data Viewer (BioNavis), and KD values were obtained using the 1:1 Langmuir model with mass transport considerations of TraceDrawer software (RidgeView Instruments Ab, Uppsala, Sweden). All of the experiments were performed three independent times.

CypA = CypA expression by Western blot; settings: 0.001 μM, 6 h; physiological and oxidative stress (150 μM H2O2) conditions
Method: (§3) Human neuroblastoma cells were treated with compounds at 0.001 μM for 6 h, and Cyps expression was determined by Western blot (Figure 10). […] SH-SY5Y cells were treated with 1–5 at 0.001 μM for 6 h, and their effects on Cyps expression were determined by Western blot. […] Protein band expression was normalized by actin levels. Results expressed as the percentage of untreated control cells or as the percentage of H2O2 control. Mean ± SEM of three replicates carried out in duplicate. Statistical differences determined by one-way ANOVA and Dunnett’s tests. ^#p < 0.05 and ^##p < 0.01 compared to control cells. *p < 0.05, **p < 0.01, and ***p < 0.01 compared to cells treated with H2O2 alone. […]
(§4) Cells were washed twice with ice-cold PBS, and a hypotonic solution was added (20 mM tris–HCl pH 7.4, 10 mM NaCl, and 3 mM MgCl2, containing phosphatase and protease inhibitor cocktail). […] The supernatant was collected as the cytosolic fraction, and protein concentration was quantified with the Direct Detect instrument (Merck Millipore, Darmstadt, Germany).[15]
(§5) Electrophoresis was resolved in 4–20% sodium dodecyl sulfate polyacrylamide gels (Biorad, Hercules, CA), containing 15 μg of cytosolic protein from each sample. […] Immunoreactive bands were detected with Supersignal West Pico Luminiscent Substrate and Supersignal West Femto Maximum Sensitivity Substrate. […]

SH-SY5Y cells [2] = experiment: Mitochondrial membrane potential (ΔΨm), TMRM dye; assay type: cell-based, human; settings: 150 μM H2O2, 6 h; compound 0.001 μM; percentage of control cells
Method: Since mitochondria are key players in neurodegeneration, acting as main producers and targets of ROS,[16] mitochondrial function was determined by analyzing the mitochondrial membrane potential (ΔΨm) with the fluorescent dye tetramethylrhodamine methyl ester (TMRM).
Figure 3 Effect of furanoditerpenes on ΔΨm of human neuroblastoma cells. Cells were treated for 6 h with S. tubulifera metabolites with and without 150 μM H2O2, and ΔΨm was determined with the TMRM dye. (a) Compound 1, (b) compound 2, (c) compound 3, (d) compound 4, and (e) compound 5 effects. Vitamin E (Vit E) at 25 μM was used as a positive control in oxidative stress assays. Data expressed as the percentage of control cells. Mean ± SEM of three experiments performed in triplicate. Statistical differences determined by one-way ANOVA and Dunnett’s tests. ^#p < 0.05 compared to untreated control cells. *p < 0.05, **p < 0.01, and ***p < 0.01 compared to cells treated with H2O2 alone.
To determine the neuroprotective effects of compounds, SH-SY5Y cells were seeded in 384-well plates at a density of 2.5 × 10^4 cells per well. After 24 h, cells were treated with the metabolites at nontoxic concentrations (0.001–1 μM) and 150 μM H2O2 for 6 h. […]
The effects of compounds in ΔΨm were analyzed with the fluorescent dye TMRM. […] The fluorescence was read in a plate reader at 535 nm excitation and 590 nm emission. […]

Human CypA = Human CypA (Homo sapiens, UniProt P62937); experiment: Surface plasmon resonance binding to immobilized CypA; settings: for Kd: CypA, SPR, 1:1 Langmuir model, PBS-T pH 7.2, 24 °C; for kon: read-out: ka, CypA
Method: The protein was immobilized on the sensor surface by amino coupling, as described above (Figure S7), and compounds at several concentrations were added. The same conditions set for CypD were used for CypA experiments, with a flow rate of 20 μL/min and PBS-T (pH 7.2) as the running buffer.
Figure 9 Binding of compounds to CypA measured by surface plasmon resonance. The left panels present association curves obtained by the addition of compounds over immobilized CypA and subtraction of their respective vehicle signal. The right panels show fitting curves for equilibrium binding. Representative graphs of one independent replicate. […] Kinetic equilibrium dissociation constants (KD) and fitting curves were obtained with TraceDrawer software.
as §2

CypD = CypD expression by Western blot; settings: compound 0.001 μM + 150 μM H2O2, 6 h; % of H2O2 control cells
Source text: (b) CypD expression after treatment with S. tubulifera metabolites. (c) Effect of compounds on the CypD expression under oxidative stress conditions. […] Protein band expression was normalized by actin levels. Results are mean ± SEM of three replicates carried out in duplicate. Data expressed as the percentage of untreated control cells and H2O2 control. Values compared by one-way ANOVA and Dunnett’s tests. ^#p < 0.05 and ^##p < 0.01 compared to control cells. *p < 0.05 and **p < 0.01 compared to cells treated with H2O2 alone.
In this context, the expression of this protein was analyzed after treatment with compounds. CypD cytosolic levels were evaluated after treatment with 1–5 alone for 6 h and after the coaddition of diterpenes and H2O2 to get a complete insight into diterpene mitochondria-related effects.
SH-SY5Y cells were cultured in 12-well plates at 1 × 10^6 cells per well and allowed to settle down for 24 h.
Cells were washed twice with ice-cold PBS, and a hypotonic solution was added (20 mM tris–HCl pH 7.4, 10 mM NaCl, and 3 mM MgCl2, containing phosphatase and protease inhibitor cocktail). Cells were incubated for 15 min on ice and centrifuged at 3000 rpm and 4 °C for 15 min. The supernatant was collected as the cytosolic fraction, and protein concentration was quantified with the Direct Detect instrument (Merck Millipore, Darmstadt, Germany).[15]
Electrophoresis was resolved in 4–20% sodium dodecyl sulfate polyacrylamide gels (Biorad, Hercules, CA), containing 15 μg of cytosolic protein from each sample. The Trans-Blot semidry transfer cell (Biorad) was used to transfer proteins to poly(vinylidene difluoride) (PVDF) membranes (Merck Millipore). Snap i.d. system (Merck Millipore) was used for membrane blocking and antibody incubation. […] Immunoreactive bands were detected with Supersignal West Pico Luminiscent Substrate and Supersignal West Femto Maximum Sensitivity Substrate. Diversity GeneSnap system and software (Syngene, Cambridge, U.K.) were used for protein band detection. Experiments were performed three independent times in duplicate.

SH-SY5Y cells [3] = experiment: ROS intracellular levels, carboxy-H2DCFDA; assay type: cell-based, human; settings: for effect on ROS content: cotreatment with 150 μM H2O2, 6 h
Method: Next, the capacity of S. tubulifera metabolites to decrease ROS intracellular levels was evaluated (Figure 4). […] Regarding the oxidative stress model, H2O2 augmented the levels of oxidant molecules up to 125.1 ± 2.4% (p < 0.01) and the known antioxidant Vit E, used as a positive control, induced a reduction in ROS release of 24% with respect to cells treated only with H2O2 (p < 0.05).
Figure 4 ROS intracellular levels after treatment with compounds. Furanoditerpenes were added for 6 h in the absence and presence of 150 μM H2O2. Then, the ROS content was measured with the fluorescent dye 5-(and-6)-carboxy-2′,7′-dichlorodihydrofluorescein diacetate (carboxy-H2DCFDA). Results from (a) 1, (b) 2, (c) 3, (d) 4, and (e) 5. Vitamin E (Vit E) at 25 μM was used as a positive control. Data expressed as the percentage of untreated control cells. Mean ± SEM of three experiments performed in triplicate. Statistical differences determined by one-way ANOVA test followed by Dunnett’s post hoc test. ^##p < 0.01 compared to control cells. *p < 0.05, **p < 0.01, and ***p < 0.01 compared to H2O2 control.
(§1) For these experiments, cells were seeded in 384-well plates and treated as described above. All of the assays were carried out as previously described.[15]
The fluorescent dye 5-(and-6)-carboxy-2′,7′-dichlorodihydrofluorescein diacetate (carboxy-H2DCFDA) was used to evaluate ROS levels. After treatment with compounds and H2O2, cells were washed twice with serum-free medium. Next, cells were loaded with 20 μM carboxy-H2DCFDA dissolved in serum-free medium, and the plate was incubated for 1 h at 37 °C and 300 rpm. Then, 100 μL of PBS were added to each well for 30 min at 37 °C and 300 rpm. After this incubation, the fluorescence was read at […].

SH-SY5Y cells [4] = experiment: GSH content, Thiol Tracker Violet; assay type: cell-based, human
Method: To confirm the antioxidant properties of S. tubulifera compounds, the levels of the most important nonenzymatic antioxidant of cells, glutathione (GSH), were assessed. […] Regarding diterpene 2, an increase in the nonenzymatic antioxidant was observed when cells were cotreated with H2O2 and this compound at 0.001 and 1 μM (p < 0.05) (Figure 5b). No effects were found after the addition of 3 (Figure 5c), but 4 and 5 presented interesting results (Figure 5d,e).
Figure 5 Effect of S. tubulifera metabolites in the GSH content of human neuroblastoma cells. SH-SY5Y cells were treated with compounds for 6 h with and without 150 μM H2O2. GSH levels were monitored with Thiol Tracker Violet dye. (a) Compound 1, (b) compound 2, (c) compound 3, (d) compound 4, and (e) compound 5 results. Vitamin E (Vit E) at 25 μM was used as a positive control. Mean ± SEM of three experiments performed in triplicate. Data presented as the percentage of untreated control cells and compared by one-way ANOVA and Dunnett’s tests. ^##p < 0.01 compared to control cells. *p < 0.05 compared to cells treated with H2O2 alone.
as §1
Thiol Tracker Violet was used to measure intracellular GSH levels, following the manufacturer’s instructions. Briefly, human neuroblastoma cells were rinsed twice with PBS and the fluorescence dye at 10 μM was added. The plate was incubated for 30 min at 37 °C and 300 rpm, and the fluorescence was measured at 404 nm excitation and 526 nm emission in a plate reader. All experiments were performed three independent times in triplicate.

CypC = CypC expression by Western blot; settings: 0.001 μM + 150 μM H2O2, 6 h; % of H2O2 control
Method: as §3, §4, §5

CypB = settings: compound alone 0.001 μM, 6 h; % of untreated control cells
Method: Before starting the experiments, antibody specificity was determined due to the conserved structures along Cyps. […] Human neuroblastoma cells were treated with compounds at 0.001 μM for 6 h, and Cyps expression was determined by Western blot (Figure 10).
SH-SY5Y cells were treated with 1–5 at 0.001 μM for 6 h, and their effects on Cyps expression were determined by Western blot. […] Protein band expression was normalized by actin levels. Results expressed as the percentage of untreated control cells or as the percentage of H2O2 control. Mean ± SEM of three replicates carried out in duplicate. Statistical differences determined by one-way ANOVA and Dunnett’s tests. ^#p < 0.05 and ^##p < 0.01 compared to control cells. *p < 0.05, **p < 0.01, and ***p < 0.01 compared to cells treated with H2O2 alone.
SH-SY5Y cells were cultured in 12-well plates at 1 × 10^6 cells per well and allowed to settle down for 24 h. Then, cells were treated with compounds at 0.001 μM for 6 h and oxidative damage was induced with 150 μM H2O2.
Cells were washed twice with ice-cold PBS, and a hypotonic solution was added (20 mM tris–HCl pH 7.4, 10 mM NaCl, and 3 mM MgCl2, containing phosphatase and protease inhibitor cocktail). […] The supernatant was collected as the cytosolic fraction, and protein concentration was quantified with the Direct Detect instrument (Merck Millipore, Darmstadt, Germany).[15] […]

[5] = set-up: method as in doi:10.1246/cl.1987.1687; settings: previous studies; cited from earlier work
[6] = system: mitochondrial permeability transition pore (mPTP); experiment: mPTP opening, calcein-AM/CoCl2 flow cytometry; settings: 0.001 μM, 15 min pretreatment, TBHP 3 min
Method: SH-SY5Y cells were treated for 15 min with 1–5, and 1 mM tert-butyl hydroperoxide (TBHP) was used to open the pore. Cells were loaded with calcein-AM, which accumulates in cytosol and cell compartments and with CoCl2 that quenches cytosolic fluorescence but not the mitochondrial signal.[17] Then, fluorescence was analyzed by flow cytometry (Figure 6a). […] (a) Analysis of mPTP opening. Cells were treated with compounds at 0.001 μM for 15 min, and pore opening was induced with 1 mM TBHP. Calcein-AM and CoCl2 were used to measure mPTP aperture by flow cytometry. […] Values are presented as the percentage of control cells. Data are mean ± SEM of three independent experiments. Statistical differences determined by one-way ANOVA and Dunnett’s tests. ^###p < 0.001 compared to control cells. *p < 0.05 and **p < 0.01 compared to cells treated only with TBHP.
The inhibition of mPTP by compounds was determined with the MitoProbe Transition Pore Assay Kit, as previously described.[21] For this assay, cells were seeded in 12-well plates at 5 × 10^5 cells per well and allowed to grow for 24 h. Then, SH-SY5Y cells were detached with Detachin solution (Genlatis, San Diego), washed with PBS, and resuspended in PBS buffer with 0.6 mM CaCl2. Cells were loaded with 0.01 μM calcein-AM and incubated at 37 °C for 15 min. Then, 0.4 mM CoCl2 and compounds at 0.001 μM were added and cells were incubated for 15 min at 37 °C. After this incubation, cells were centrifuged, resuspended in 100 μL of calcium-free PBS, and kept on ice. Finally, TBHP at 1 mM was added for 3 min to the cells to induce the pore opening. […] The fluorescence of 10 000 events was analyzed with IDEAS Application vs 6.0 (Amnis Corporation, Luminex Corp).

Human CypA, sequence (P62937 whole entry): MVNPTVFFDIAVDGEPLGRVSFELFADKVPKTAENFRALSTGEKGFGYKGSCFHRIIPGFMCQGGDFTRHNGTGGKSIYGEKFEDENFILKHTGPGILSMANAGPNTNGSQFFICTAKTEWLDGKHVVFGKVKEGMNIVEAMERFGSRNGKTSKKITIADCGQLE
human CypD, sequence (P30405 30-207): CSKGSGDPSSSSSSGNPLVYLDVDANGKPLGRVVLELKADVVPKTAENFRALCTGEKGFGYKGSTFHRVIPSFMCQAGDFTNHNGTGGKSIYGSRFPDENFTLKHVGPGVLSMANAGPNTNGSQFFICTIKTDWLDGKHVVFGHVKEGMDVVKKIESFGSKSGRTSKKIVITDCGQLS

SMILES | cytotoxicity (human cancer cell lines) | selectivity between CypD and CypA (KD values) (human CypD; SPR) | Kd (Human CypA) [µM] | kon (Human CypA) [M⁻¹ s⁻¹] | CypD expression under oxidative damage (CypD) | Kd (human CypD) [µM] | kon (human CypD) [M⁻¹ s⁻¹] | further results
CC1(C)[C@@H](O)C(=O)C[C@]2(C)[C@H]3CCc4cocc4[C@]3(C)CC[C@@H]12 [Compound 1] | weak cytotoxicity | selective toward CypA | 15.2 ± 1.31 | 682 | about 54% |  |  | protection of cell viability from H2O2 damage (SH-SY5Y cells [1]): not able to protect; KD (kinetic equilibrium dissociation constant), CypD (human CypD; SPR, 1:1 Langmuir model, PBS-0.05% Tween pH 7.2, 24 °C): No binding; ka, CypD (human CypD; SPR, Table S1): No binding; kd, CypD (human CypD; SPR, Table S1): No binding; binding to CypD (human CypD; SPR, up to 50 μM): No binding; effect on CypA expression (CypA): decreased its expression; ΔΨm (SH-SY5Y cells [2]): 96.7 ± 5.4%; SPR signal, CypA (Human CypA; at 50 μM): 9.9 mdeg; effect on ROS content (SH-SY5Y cells [3]; all four concentrations 0.001-1 μM): significant decrease; effect on GSH content (SH-SY5Y cells [4]; compound alone and with 150 μM H2O2, 6 h): did not affected the GSH content
CC1(C)C(=O)C(O)=C[C@]2(C)[C@H]3CCc4cocc4[C@]3(C)CC[C@@H]12 [Compound 2] |  | selectivity toward the mitochondrial isoform | 14.7 ± 1.08 | 1320 | 37.9 ± 17.9% | 2.53 ± 0.006 | 10000 | CypC expression under oxidative injury (CypC): 24.3 ± 2.9%; ROS levels (SH-SY5Y cells [3]; 150 μM H2O2, 6 h, compound 0.1 μM, percentage of untreated control cells): 89.9 ± 5.7%; effect on ROS content (SH-SY5Y cells [3]; at 0.001, 0.1 and 1 μM): reduced the levels; effect on GSH content (SH-SY5Y cells [4]; cotreated with 150 μM H2O2, 6 h, at 0.001 and 1 μM): increase
C[C@]12CC(=O)[C@H](O)[C@](C)(CO)[C@@H]1CC[C@@]1(C)c3cocc3CC[C@H]21 [Compound 4, epispongiadiol] | weak cytotoxicity |  | 27.4 ± 3.68 | 861 | about 54% | 30.4 ± 0.87 | 738 | CypB expression (CypB): 48.54 ± 11.4%; antiviral activity [5]: antiviral activity; inhibition of mPTP opening after oxidative injury [6]: able to inhibit mPTP opening
